Structures can show the parent of a compound that is named as a salt.
Key:
in vitro = details: human
Huh-7 cells = details: human
SARS-CoV 3CL^pro = SARS-CoV 3CL^pro (Severe acute respiratory syndrome coronavirus, UniProt P0C6X7); details: cited from earlier work

Structure (SMILES)	CC50 (in vitro) [µM]	decrease of viability of mock cells (Huh-7 cells) [%]	activity against SARS-CoV 3CL^pro (SARS-CoV 3CL^pro)
Nc1ccn([C@@H]2O[C@H](CO)[C@@H](O)C2(F)F)c(=O)n1 [GEM, Gemcitabine hydrochloride]	> 100	≥ 20	
CCOC(=O)/C=C/[C@H](C[C@@H]1CCNC1=O)NC(=O)[C@@H](CC(=O)[C@@H](NC(=O)c1cc(C)on1)C(C)C)Cc1ccc(F)cc1 [AG7088]			inactive

From publication PMC7113684 (Antiviral Research, 2017)
